We go through 8 compounds from paper doi:10.1101/2022.07.05.498881v1 (biorxiv, 2022).

pIC50: −log10 of the molar value. Like-named read-outs stand apart in the source and are kept apart here.

Experiment [1] concerns the target T1, SARS-CoV-2 MPro (main protease, 3CL protease, Nsp5) (Severe acute respiratory syndrome coronavirus 2, UniProt P0DTD1).
T1 construct: gene rep
Put plainly: biochemical. Further details: fluorogenic NSP7 peptide substrate cleavage, concentration-response inhibition of MPro.

Experiment [2] addresses T2, SARS-CoV-1 MPro (SARS-CoV-1 major protease) (Severe acute respiratory syndrome-related coronavirus, UniProt P0C6X7).
T2 construct: gene rep
Put plainly: biochemical.

The target of experiment [3] is T3, MERS MPro (MERS-CoV MPro, MERS major protease) (Betacoronavirus England 1, UniProt K9N7C7).
T3 construct: gene rep
T3 sequence (K9N7C7 3248-3553 limits assumed): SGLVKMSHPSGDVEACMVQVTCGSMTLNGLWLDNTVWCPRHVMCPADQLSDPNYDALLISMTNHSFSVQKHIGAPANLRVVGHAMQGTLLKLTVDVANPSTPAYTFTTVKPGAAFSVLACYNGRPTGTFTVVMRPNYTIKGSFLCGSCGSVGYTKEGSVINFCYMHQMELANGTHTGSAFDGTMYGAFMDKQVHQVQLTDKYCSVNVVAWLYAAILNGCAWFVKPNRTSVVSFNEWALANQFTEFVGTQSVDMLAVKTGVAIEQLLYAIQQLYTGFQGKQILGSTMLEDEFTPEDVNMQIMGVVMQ
Description: biochemical.

The target in experiment [4] is T1, SARS-CoV-2 MPro (main protease, 3CL protease, Nsp5). Also on record: fluorogenic NSP7 peptide substrate cleavage, concentration-response inhibition of MPro. As to conditions: read-out: IC50 [µM] (ACN); compound in acetonitrile; inhibitor.

With `Cc1noc(C)c1CCCNc1nc(-c2ccncc2)nc2ccccc12` [ZINC301553312], the pIC50 in experiment [1] is 3.91.

As to `O=Cc1ncc(Br)cc1OCc1ccc(Cl)c([N+](=O)[O-])c1` ['7021], the pIC50 in experiment [2] was 5.10; in experiment [3], 4.30. `O=C(Cc1cccnc1)N(Cc1ccccn1)c1ccc(Cl)cc1` [ZINC346371112] gave a pIC50 in experiment [1] of 3.67. In the case of `CC1CN(c2ncnc3sc4ccccc4c23)CC(=O)N1C` (stereo not shown) [ZINC336912805], the IC50 in experiment [1] (read-out: IC50 [µM] (DMSO), compound in DMSO, inhibitor) worked out at 250 µM; in experiment [4] it was 177 µM.

`COc1cc(C=O)c(OS(=O)(=O)CC2CCCCC2)cc1OC` [ZINC271072260] gave a negative-log IC50 (pIC50) in experiment [1] of 3.94. Same read-out and setting: next, `CC1CN(C(=O)CCn2cc(Br)ccc2=O)Cc2ccccc2O1` (stereo not shown) [ZINC553840273]: 3.70; `COC(=O)c1cc(C#N)c(=O)n(Cc2cccc(F)c2Cl)c1` [ZINC338540162]: 3.55; `O=c1cc(CN2CC(CO)c3ccccc32)nc2ccccn12` (stereo not shown) [ZINC433294115]: 4.01.
